Read-outs that look alike come from different tables or passages of the source.
Columns and labels:
[1] = test system: Human CYP2E1; conditions: cited from earlier work
[2] = target: T1, CYP2E1 (Homo sapiens, UniProt P05181); assay: biochemical
[3] = target: T1, CYP2E1; conditions: read-out: Ks; styrene, free enzyme; cited from earlier work
[4] = target: T1, CYP2E1; assay: in vitro; conditions: recombinant enzyme, pH 7.4
[5] = target: T1, CYP2E1; assay: Impact of styrene on acetaminophen oxidation by recombinant CYP2E1; conditions: 100 µM acetaminophen, styrene 50 to 500 µM

T1 sequence (P05181 whole entry): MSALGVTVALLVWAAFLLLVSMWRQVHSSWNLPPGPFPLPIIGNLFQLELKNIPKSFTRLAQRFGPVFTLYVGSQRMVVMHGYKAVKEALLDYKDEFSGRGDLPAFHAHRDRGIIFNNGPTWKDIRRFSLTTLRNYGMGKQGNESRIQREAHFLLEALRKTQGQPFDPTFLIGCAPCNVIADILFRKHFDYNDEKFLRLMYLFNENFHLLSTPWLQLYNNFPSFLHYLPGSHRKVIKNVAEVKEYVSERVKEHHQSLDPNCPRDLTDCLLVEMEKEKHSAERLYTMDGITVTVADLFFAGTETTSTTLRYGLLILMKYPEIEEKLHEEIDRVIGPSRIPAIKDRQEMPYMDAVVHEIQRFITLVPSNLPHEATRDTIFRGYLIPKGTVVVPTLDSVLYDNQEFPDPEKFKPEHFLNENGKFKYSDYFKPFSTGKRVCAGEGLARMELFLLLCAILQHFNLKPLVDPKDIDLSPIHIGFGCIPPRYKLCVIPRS

IC50 [2] | activity [4] | Structure (SMILES) | Km ([1]; CYP2E1 expressed in HepG2 cells or purified CYP2E1 in a reconstituted system) | Km ([1]; reconstituted CYP2E1 system) | Kd [3] | remaining acetaminophen oxidation activity versus prediction [5]
– | – | CC(=O)Nc1ccc(O)cc1 [acetaminophen] | ~600 µM | 1300 µM | – | –
22 µM | 19% | C=Cc1ccccc1 [styrene] | – | – | 375 µM | greater than would be predicted by simple competition
